Data reported in patent publication US20240018115A1, “ALLOSTERIC CHROMENONE INHIBITORS OF PHOSPHOINOSITIDE 3-KINASE (PI3K) FOR THE TREATMENT OF DISEASE” (Petra Pharma Corporation, priority 2022, published 2024).

Target: T1, PI3K-Alpha kinase H1047R mutant (Homo sapiens, UniProt P42336, H1047R)
T1 construct: host or cells: MDA-MB-453
Assay: PI3K-Alpha Kinase (PIK3CA) Activity, H1047R Mutant In Vitro Cell Based Assay (MDA-MB-453 cells, AlphaLisa SureFire Ultra)
Settings: 0% FBS, 3 hours treatment, relative IC50
Procedure: PI3K-Alpha Kinase (PIK3CA) Activity, H1047R Mutant In Vitro Cell Based Assay and Determining IC50 Values for Inhibitors
The MDA-MB-453 (ATCC-HTB-131) cell line was obtained from the American Type Culture Collection (Manassas, VA). Cells were maintained in Dulbecco's Modified Eagle Media (DMEM, Gibco 11965-092) supplemented with 10% Fetal Bovine Serum, heat inactivated (FBS HI, Gibco 10082-147), 1× non-essential amino acids (NEAA, Gibco 11140-050), and 1 mM sodium pyruvate (Gibco 11360-070). Cultures were maintained in a humidified incubator at 37° C. under 5% CO2/95% air.
For compound testing in 0% FBS, MDA-MB-453 cells were seeded at a density of 1.5×10^4 cells per well in white 384-well plates in 20 μl of Minimum Essential Media (MEM) assay media with 1×NEAA, 1 mM sodium pyruvate, and 1 μg/mL human insulin (Sigma I9278). Compounds dissolved in 10 mM stock solutions in DMSO were serially diluted 1:3 in DMSO to generate a 10-point dilution series and plated using an acoustic liquid handler system (Echo 550 Series Liquid Handler, Labcyte). A 5× intermediate compound dilution plate in MEM with 1×NEAA and 1 mM sodium pyruvate (150 μM starting compound concentration in 1.5% DMSO) was then prepared. Five μl of the intermediate serially diluted compounds were added to the cell plate to final concentrations ranging from […] in 0.3% DMSO. 0.3% DMSO alone was used to establish the maximum (MAX) signal and GDC-0032 at a final concentration of 1 μM was used as a reference compound for the minimum (MIN) signal. After 3 hours treatment, the medium was removed, and the cells lysed in 10 μL of 1× SureFire Lysis buffer with shaking for 10 minutes at room temperature. The Acceptor Mix (Reaction Buffer 1+Reaction Buffer 2+Activation Buffer+SureFire Ultra Acceptor Beads) was prepared by diluting Activation buffer 25-fold in combined Reaction Buffer 1 and Reaction Buffer 2. The Acceptor beads were diluted 50-fold in the combined Reaction Buffers. Five μL of Acceptor Mix was added to each well, the plate was sealed and covered with foil and incubated for 1 hour at room temperature. The Donor Mix (dilution buffer+SureFire Ultra Donor Beads) was prepared by diluting Donor Beads 50-fold in dilution buffer. Five μL of the Donor Mix was added to each well and the plate sealed and covered with foil and incubated for 1 hour at room temperature in the dark. The plates were read on a Neo2 plate reader instrument from Biotek using standard AlphaLisa settings. Compounds were tested in duplicate and the average % inhibition at each compound concentration was used to generate a single dose response curve. The data were processed using the Genedata-Screener tool. Relative IC50 values were determined using luminescence units by calculating percent inhibition with respect to the in-plate “MIN” (GDC-0032 reference control) and “MAX” (DMSO) controls. The data was analyzed using a 4-parameter nonlinear logistic equation (four-parameter logistic concentration-response curve):
Y=bottom+[(top−bottom)/1+(X/IC50)slope]
where Y=% inhibition, X=concentration of inhibitor, bottom=minimum value of y attained by curve-fit, top=maximum value of y attained by curve-fit and slope=steepness of curve at the IC50.
% Inhibition=[(signal at X−median Min)/(median Max−median Min)]×100
IC50: concentration of compound that reduces a given response (ligand binding, enzyme response) by 50%. Relative IC50: concentration giving half the compound's maximum response.

T1 sequence (P42336 whole entry H1047R): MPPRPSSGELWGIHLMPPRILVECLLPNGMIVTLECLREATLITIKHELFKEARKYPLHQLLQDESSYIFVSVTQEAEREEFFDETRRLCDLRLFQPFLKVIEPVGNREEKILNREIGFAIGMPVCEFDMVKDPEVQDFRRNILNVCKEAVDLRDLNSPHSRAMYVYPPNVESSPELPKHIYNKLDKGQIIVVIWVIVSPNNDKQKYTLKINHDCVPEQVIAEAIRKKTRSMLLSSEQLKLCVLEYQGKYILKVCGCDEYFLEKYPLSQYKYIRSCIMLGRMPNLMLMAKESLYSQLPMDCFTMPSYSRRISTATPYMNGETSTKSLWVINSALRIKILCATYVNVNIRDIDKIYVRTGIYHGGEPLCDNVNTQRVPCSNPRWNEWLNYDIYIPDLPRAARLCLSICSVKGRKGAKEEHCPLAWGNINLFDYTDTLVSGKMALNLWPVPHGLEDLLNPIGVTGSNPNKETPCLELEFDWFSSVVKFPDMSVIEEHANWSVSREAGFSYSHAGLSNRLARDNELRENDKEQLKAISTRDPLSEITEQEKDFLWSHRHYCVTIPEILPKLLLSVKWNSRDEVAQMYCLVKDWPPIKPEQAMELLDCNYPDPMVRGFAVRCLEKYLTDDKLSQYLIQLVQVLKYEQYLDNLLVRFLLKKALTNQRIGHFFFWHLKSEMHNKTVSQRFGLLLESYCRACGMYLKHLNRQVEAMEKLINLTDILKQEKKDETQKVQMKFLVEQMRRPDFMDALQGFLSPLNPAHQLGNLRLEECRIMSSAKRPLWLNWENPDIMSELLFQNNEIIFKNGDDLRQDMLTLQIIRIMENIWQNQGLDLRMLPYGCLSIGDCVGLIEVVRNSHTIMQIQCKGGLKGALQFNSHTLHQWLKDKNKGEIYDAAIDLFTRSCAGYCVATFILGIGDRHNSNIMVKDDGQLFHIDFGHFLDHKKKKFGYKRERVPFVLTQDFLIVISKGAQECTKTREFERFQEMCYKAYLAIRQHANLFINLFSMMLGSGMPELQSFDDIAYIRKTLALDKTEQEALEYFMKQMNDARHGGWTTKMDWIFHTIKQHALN
T1 sequence (P27986 whole entry partner): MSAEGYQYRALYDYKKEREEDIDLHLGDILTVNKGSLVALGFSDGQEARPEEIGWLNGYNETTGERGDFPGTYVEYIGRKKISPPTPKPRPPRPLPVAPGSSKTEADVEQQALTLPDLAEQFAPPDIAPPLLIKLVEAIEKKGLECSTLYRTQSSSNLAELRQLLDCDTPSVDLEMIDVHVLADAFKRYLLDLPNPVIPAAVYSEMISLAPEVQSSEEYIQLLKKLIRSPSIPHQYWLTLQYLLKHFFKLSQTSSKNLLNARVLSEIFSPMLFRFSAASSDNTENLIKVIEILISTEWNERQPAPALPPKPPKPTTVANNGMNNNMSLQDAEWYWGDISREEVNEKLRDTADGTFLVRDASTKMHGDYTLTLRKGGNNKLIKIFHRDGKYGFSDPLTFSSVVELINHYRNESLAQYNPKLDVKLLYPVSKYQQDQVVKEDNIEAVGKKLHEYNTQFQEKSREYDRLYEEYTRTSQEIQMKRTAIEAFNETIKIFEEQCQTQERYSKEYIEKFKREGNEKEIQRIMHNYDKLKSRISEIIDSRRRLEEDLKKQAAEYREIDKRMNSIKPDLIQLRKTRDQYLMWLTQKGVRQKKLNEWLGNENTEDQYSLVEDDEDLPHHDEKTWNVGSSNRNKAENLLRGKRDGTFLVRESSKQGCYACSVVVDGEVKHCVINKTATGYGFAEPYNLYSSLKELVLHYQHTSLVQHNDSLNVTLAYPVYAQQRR

Row | Compound | IC50 [nM]
1 | Cc1cc([C@@H](C)Nc2ccc(Cl)cc2)c2oc(-c3ccccc3)c(C)c(=O)c2c1 [Example 12B, 8-[(1R)-1-(4-Chloroanilino)ethyl]-3,6-dimethyl-2-phenyl-chromen-4-one] | < 1000
2 | Cc1cc([C@@H](C)Nc2ccc(Cl)nc2C)c2oc(-c3cccnc3)c(C)c(=O)c2c1 [Example 10B, 8-[(1R)-1-[(6-Chloro-2-methyl-3-pyridyl)amino]ethyl]-3,6-dimethyl-2-(3-pyridyl)chromen-4-one] | < 500
3 | Cc1cc(C(C)Nc2ccc(Cl)nc2-c2ccccc2F)c2oc(-c3cccnc3)c(C)c(=O)c2c1 (single isomer, unassigned) [Example 219C, 8-[1-[[6-Chloro-2-(2-fluorophenyl)-3-pyridyl]amino]ethyl]-3,6-dimethyl-2-(3-pyridyl)chromen-4-one] | < 500
4 | Cc1cc([C@@H](C)Nc2cccnc2-c2ncon2)c2oc(-c3ccccc3)c(C)c(=O)c2c1 [Example 53C, 3,6-Dimethyl-8-[(1R)-1-[[2-(1,2,4-oxadiazol-3-yl)-3-pyridyl]amino]ethyl]-2-phenyl-chromen-4-one] | < 500
5 | Cc1cc([C@@H](C)Nc2ccc(Cl)nc2C(=O)NS(N)(=O)=O)c2oc(-c3ccccc3)c(C)c(=O)c2c1 [Example 130C, 6-Chloro-3-[[(1R)-1-(3,6-dimethyl-4-oxo-2-phenyl-chromen-8-yl)ethyl]amino]-N-sulfamoyl-pyridine-2-carboxamide] | < 500
6 | Cc1cc([C@@H](C)Nc2ccccc2-c2nncn2C)c2oc(-c3ccccc3)c(C)c(=O)c2c1 [Example 66A, 3,6-Dimethyl-8-[(1R)-1-[2-(4-methyl-1,2,4-triazol-3-yl)anilino]ethyl]-2-phenyl-chromen-4-one] | < 500
7 | Cc1cc([C@@H](C)Nc2ccc(Cl)nc2C)c2oc(-c3ccc4cn[nH]c4c3)c(C)c(=O)c2c1 [Example 78B, 8-[(1R)-1-[(6-Chloro-2-methyl-3-pyridyl)amino]ethyl]-2-(1H-indazol-6-yl)-3,6-dimethyl-chromen-4-one] | < 500
8 | Cc1cc([C@@H](C)Nc2ccccc2C(=O)C=S(C)(C)=O)c2oc(-c3ccccc3)c(C)c(=O)c2c1 [Example 54C, 8-[(1R)-1-[2-[2-[Dimethyl(oxo)-lambda6-sulfanylidene]acetyl]anilino]ethyl]-3,6-dimethyl-2-phenyl-chromen-4-one] | < 500
9 | Cc1cc([C@@H](C)Nc2ccc(Cl)nc2S(N)(=O)=O)c2oc(-c3ccccc3)c(-c3cnoc3)c(=O)c2c1 [Example 132C] | < 500
10 | Cc1cc([C@@H](C)Nc2ccccc2-c2ccns2)c2oc(-c3cccnc3)c(C)c(=O)c2c1 [Example 74A, 8-[(1R)-1-(2-Isothiazol-5-ylanilino)ethyl]-3,6-dimethyl-2-(3-pyridyl)-chromen-4-one] | < 500
11 | Cc1cc([C@@H](C)Nc2ccc(Cl)nc2S(N)(=O)=O)c2oc(-c3ccc(=O)n(C(C)C)c3)c(C)c(=O)c2c1 [Example 133C] | < 500
12 | Cc1cc([C@@H](C)Nc2ccccc2-c2ncco2)c2oc(-c3ccccc3)c(C)c(=O)c2c1 [Example 65A, 3,6-Dimethyl-8-[(1R)-1-(2-oxazol-2-ylanilino)ethyl]-2-phenyl-chromen-4-one] | < 1000
13 | CNC(=O)c1ccccc1N[C@H](C)c1cc(C)cc2c(=O)c(C)c(-c3cccc(F)c3)oc12 [Example 86A, 2-[[(1R)-1-[2-(3-Fluorophenyl)-3,6-dimethyl-4-oxo-chromen-8-yl]ethyl]amino]-N-methyl-benzamide] | < 500
14 | Cc1cc([C@@H](C)Nc2ccccc2CO)c2oc(-c3cccnc3)c(C)c(=O)c2c1 [Example 224C, 8-[(1R)-1-[2-(Hydroxymethyl)anilino]ethyl]-3,6-dimethyl-2-(3-pyridyl)chromen-4-one] | < 500
15 | Cc1cc([C@@H](C)Nc2cccnc2C)c2oc(-c3cccnc3)c(C)c(=O)c2c1 [Example 9B, 3,6-Dimethyl-8-[(1R)-1-[(2-methyl-3-pyridyl)amino]ethyl]-2-(3-pyridyl)chromen-4-one] | < 500
16 | Cc1cc([C@@H](C)Nc2cccnc2C(=O)NCC(C)(C)O)c2oc(-c3ccccc3)c(C)c(=O)c2c1 [Example 177A, 3-[[(1R)-1-(3,6-Dimethyl-4-oxo-2-phenyl-chromen-8-yl)ethyl]amino]-N-(2-hydroxy-2-methyl-propyl)pyridine-2-carboxamide] | < 500
17 | Cc1cc([C@@H](C)Nc2ccc(Cl)nc2)c2oc(-c3ccc(CN(C)C)cc3)c(C)c(=O)c2c1 [Example 22B, 8-[(1R)-1-[(6-Chloro-3-pyridyl)amino]ethyl]-2-[4-[(dimethylamino)methy1]phenyl]-3,6-dimethyl-chromen-4-one] | < 500
18 | Cc1cc(C(C)Nc2ccccc2S(N)(=O)=O)c2oc(-c3ccccc3)c(C)c(=O)c2c1 (stereo not shown) [Example 32A, 2-[1-(3,6-Dimethyl-4-oxo-2-phenyl-chromen-8-yl)ethylamino]benzenesulfonamide] | < 500
19 | CONS(=O)(=O)c1ccccc1N[C@H](C)c1cc(C)cc2c(=O)c(C)c(-c3ccccc3)oc12 [Example 129C, 2-[[(1R)-1-(3,6-Dimethyl-4-oxo-2-phenyl-chromen-8-yl)ethyl]amino]-N-methoxy-benzenesulfonamide] | < 500
20 | Cc1cc(C(C)Nc2ccccc2-n2cnnn2)c2oc(-c3ccccc3)c(C)c(=O)c2c1 (single isomer, unassigned) [Example 24A, 3,6-Dimethyl-2-phenyl-8-[1-[2-(tetrazol-1-yl)anilino]ethyl]chromen-4-one] | < 500
21 | Cc1cc([C@@H](C)Nc2ccc(Cl)nc2S(C)(=O)=O)c2oc(-c3ccccc3)c(C)c(=O)c2c1 [Example 80B, 8-[(1R)-1-[(6-Chloro-2-methylsulfonyl-3-pyridyl)amino]ethyl]-3,6-dimethyl-2-phenyl-chromen-4-one] | < 500
22 | Cc1cc([C@@H](C)Nc2ccc(Cl)nc2)c2oc(-c3ccccc3)c(C)c(=O)c2c1 [Example 14B, 8-[(1R)-1-[(6-Chloro-3-pyridyl)amino]ethyl]-3,6-dimethyl-2-phenyl-chromen-4-one] | < 500
23 | Cc1cc([C@@H](C)Nc2ccccc2-c2cncs2)c2oc(-c3cccnc3)c(C)c(=O)c2c1 [Example 72A, 3,6-Dimethyl-2-(3-pyridyl)-8-[(1R)-1-(2-thiazol-5-ylanilino)-ethyl]chromen-4-one] | < 500
24 | Cc1cc(C(C)Nc2cccc3c2C(=O)C(=O)N3)c2oc(-c3ccccc3)c(C)c(=O)c2c1 (single isomer, unassigned) [Example 27A] | < 1000
25 | Cc1cc([C@@H](C)Nc2ccccc2-c2cncn2C)c2oc(-c3ccccc3)c(C)c(=O)c2c1 [Example 68A, 3,6-Dimethyl-8-[(1R)-1-[2-(3-methylimidazol-4-yl)anilino]ethyl]-2-phenyl-chromen-4-one] | < 500
26 | Cc1cc([C@@H](C)Nc2cccnc2C(=O)N[C@@H]2CCOC2)c2oc(-c3ccccc3)c(C)c(=O)c2c1 [Example 178A, 3-[[(1R)-1-(3,6-Dimethyl-4-oxo-2-phenyl-chromen-8-yl)ethyl]amino]-N-[(3R)-tetrahydrofuran-3-yl]pyridine-2-carboxamide] | < 500
27 | Cc1cc([C@@H](C)Nc2cccnc2N(C)C)c2oc(-c3cccnc3)c(C)c(=O)c2c1 [Example 168C, 8-[(1R)-1-[[2-(Dimethylamino)-3-pyridyl]amino]ethyl]-3,6-dimethyl-2-(3-pyridyl)chromen-4-one] | < 500
28 | Cc1cc(C(C)Nc2ccc(Cl)nc2-c2ccc(=O)[nH]c2)c2oc(-c3cccnc3)c(C)c(=O)c2c1 (single isomer, unassigned) [Example 222C, 5-[6-Chloro-3-[1-[3,6-dimethyl-4-oxo-2-(3-pyridyl)chromen-8-yl]ethylamino]-2-pyridyl]-1H-pyridin-2-one] | < 500
